Data reported in patent US6428820B2, “Extracts of Hypericum perforatum and formulations containing them” (Indena S.p.A., priority 1999, dated 2002).
Values after ≈ are worked out from the molar mass of the structure shown.

What was measured:
[1] = tested on: serotonin (5-HT) uptake; experiment: Inhibition of 3H 5-HT (serotonin) uptake; format: biochemical; settings: inhibition of 3H 5-HT uptake
[2] = tested on: dopamine (DA) uptake; settings: inhibition of 3H DA uptake

Molecule | IC50 3H-5 HT uptake [1] [µg/mL] | IC50 3H DA uptake [2] [µg/mL]
Cc1cc(O)c2c(=O)c3c(O)cc(O)c4c5c(O)cc(O)c6c(=O)c7c(O)cc(CO)c8c1c2c(c34)c(c65)c78 [Pseudo-hypericin] | 27.0 ± 1.1020 (≈ 51.9 µM) | 1.40 ± 0.13 (≈ 2.69 µM)
Hyperforin | 4.75 ± 0.79 | 1.54 ± 0.23
